For 20 compounds, IC50 results are on record in patent US20240124469A1, “PIM KINASE INHIBITOR” (Hangzhou Biosun Pharmaceutical Co., Ltd., priority 2021, published 2024).

Common to all, as to type: biochemical
Assay [1] concerns the target PIM2 (Homo sapiens (Human), UniProt Q9P1W9). In words: PIM2 kinase activity test (Mobility shift assay). Here is the method:
(§1) The efficacy of the compounds on the activity of PIM1/2/3 was tested by utilizing the Mobility shift assay method, with the specific procedures shown as follows: the test compounds were each dissolved in DMSO to be prepared into a 10 mM stock solution; for each of the test compounds, the stock solution was subjected to a 3-fold dilution from an initial concentration of 10 μM to obtain 10 concentrations.
(§2) PIM1, PIM2, and PIM3 (all three kinases are from Carna) were each prepared with 1× Kinase buffer into a kinase solution at a concentration that was 2.5 times the final concentration. 10 μL of kinase solution at a concentration that was 2.5 times the final concentration was added to each of the compound wells and the positive control well, and 10 μL of 1× Kinase buffer was added to the negative control well. The plate was centrifuged at 1000 rpm for 30 s, mixed well by shaking, and then incubated at room temperature for 10 min. A mixed solution of ATP and Kinase substrate 20 (from GL) at a concentration that was 25/15 times the final concentration was prepared with 1× Kinase buffer. The reaction was started by adding 15 μL of the mixed solution of ATP and Kinase substrate 20 at a concentration that was 25/15 times the final concentration. The 384-well plate was centrifuged at 1000 rpm for 30 s, mixed well by shaking, and then incubated at room temperature for 60 min. 30 μL of stop assay buffer was added to stop the kinase reaction. The plate was centrifuged at 1000 rpm for 30 s and mixed well by shaking. The conversion rates were read using Caliper EZ Reader.
(§3) The IC50 values of the test compounds for kinase activity were obtained by adopting a fitted dose-response curve of analytic software GraphPad Prism 5.

Assay [2] concerns the target PIM1 (Homo sapiens (Human), UniProt P11309). Nature of the assay: PIM1 kinase activity test (Mobility shift assay). The protocol: as §1, §2, §3
In assay [3] the target is PIM3 (Homo sapiens (Human), UniProt Q86V86). In words: PIM3 kinase activity test (Mobility shift assay). Here is the method: as §1, §2, §3

Molecules are shown by their SMILES.

Chain of PIM2 (Q9P1W9 whole entry): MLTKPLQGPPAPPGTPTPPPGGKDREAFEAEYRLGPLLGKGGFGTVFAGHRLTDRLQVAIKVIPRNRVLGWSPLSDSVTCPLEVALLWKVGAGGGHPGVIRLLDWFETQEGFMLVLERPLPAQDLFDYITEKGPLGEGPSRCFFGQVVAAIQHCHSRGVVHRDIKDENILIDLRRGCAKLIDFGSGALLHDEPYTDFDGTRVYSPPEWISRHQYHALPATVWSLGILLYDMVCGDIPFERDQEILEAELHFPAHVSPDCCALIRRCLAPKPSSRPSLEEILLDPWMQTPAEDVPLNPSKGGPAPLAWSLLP
Chain of PIM1 (P11309 whole entry): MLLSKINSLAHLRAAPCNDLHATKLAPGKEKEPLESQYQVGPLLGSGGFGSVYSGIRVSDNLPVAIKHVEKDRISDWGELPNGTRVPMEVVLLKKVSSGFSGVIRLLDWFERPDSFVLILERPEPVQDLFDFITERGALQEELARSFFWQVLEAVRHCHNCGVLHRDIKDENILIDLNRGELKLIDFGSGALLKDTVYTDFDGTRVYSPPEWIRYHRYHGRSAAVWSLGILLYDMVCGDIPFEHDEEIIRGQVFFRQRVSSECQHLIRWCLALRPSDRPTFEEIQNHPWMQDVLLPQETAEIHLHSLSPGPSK

In the case of `O[C@H]1CCC[C@@H](Nc2ccc3ncc(-c4cccc(C(F)(F)F)c4)n3n2)CC1` (relative stereo) [Compound 23, cis-4-[[3-[3-(trifluoromethyl)phenyl]imidazo[1,2-b]pyridazin-6-yl]amino]cycloheptanol], the results for the IC50 in assay [1], in assay [2] and in assay [3] were greater than 10000 nM, 100 to 1000 nM and 1000 to 10000 nM, respectively.
The like results for `CC(C)(O)[C@H]1CC[C@H](Nc2ccc3ncc(-c4cccs4)n3n2)CC1` [Compound 14, 2-[(1r,4r)-4-[[3-(2-thienyl)imidazo[1,2-b]pyridazin-6-yl]amino]cyclohexyl]propan-2-ol] were, in that order, 100 to 1000 nM, 10 to 100 nM and 100 to 1000 nM.
The like results for `FC(F)(F)c1cccc(-c2cnc3ccc(NCC4CC5(CCNCC5)C4)nn23)c1` [Compound 15, N-(7-azaspiro [3.5]nonan-2-ylmethyl)-3-[3-(trifluoromethyl)phenyl]imidazo[1,2-b]pyridazin-6-amine] were, in that order, 1000 to 10000 nM, 10 to 100 nM and 100 to 1000 nM.
Regarding `CC(C)(O)[C@H]1CC[C@H](Nc2ccc3ncc(-c4nccs4)n3n2)CC1` [Compound 17, 2-[(1r,4r)-4-[(3-thiazol-2-ylimidazo[1,2-b]pyridazin-6-yl)amino]cyclohexyl]propan-2-ol], the IC50 in assay [1], in assay [2] and in assay [3] was 100 to 1000 nM throughout.
As to `FC(F)(F)c1cccc(-c2cnc3ccc(NCC4CC5(CCNC5)C4)nn23)c1` (stereo not drawn) [Compound 18, N-(6-azaspiro[3.4]octan-2-ylmethyl)-3-(3-(trifluoromethyl)phenyl)imidazo[1,2-b]pyridazin-6-amine], the IC50 lay within 100 to 1000 nM in assay [1], 10 to 100 nM in assay [2] and 100 to 1000 nM in assay [3].
In the case of `FC(F)(F)c1cccc(-c2cnc3ccc(NC4CCCNCC4)nn23)c1` (stereo not drawn) [Compound 19, N-(azepan-4-yl)-3-[3-(trifluoromethyl)phenyl]imidazo[1,2-b]pyridazin-6-amine], the IC50 was in the range of 100 to 1000 nM in assay [1], 2 to 10 nM in assay [2] and 10 to 100 nM in assay [3].
The like results for `O[C@H]1CCCC[C@@H](Nc2ccc3ncc(-c4cccc(C(F)(F)F)c4)n3n2)C1` [Compound 21, (1S,3R)-3-[[3-[3-(trifluoromethyl)phenyl]imidazo[1,2-b]pyridazin-6-yl]amino]cycloheptanol] were, in that order, 1000 to 10000 nM, 100 to 1000 nM and 1000 to 10000 nM.
The like results for `OC[C@@H]1CC[C@@H](Nc2ccc3ncc(-c4cccc(C(F)(F)F)c4)n3n2)CO1` [Compound 22, [(2S,5R)-5-[[3-[3-(trifluoromethyl)phenyl]imidazo[1,2-b]pyridazin-6-yl]amino]tetrahydropyran-2-yl]methanol] were, in that order, 1000 to 10000 nM, 10 to 100 nM and 1000 to 10000 nM.
The like results for `FC(F)(F)c1cccc(-c2cnc3ccc(NC4CC5(CCNC5)C4)nn23)c1` (stereo not drawn) [Compound 24, N-(6-azaspiro [3.4]octan-2-yl)-3-(3-(trifluoromethyl)phenyl)imidazo[1,2-b]pyridazin-6-amine] were, in that order, 1000 to 10000 nM, 100 to 1000 nM and 100 to 1000 nM.
In the case of `OC[C@H]1CC[C@H](Nc2ccc3ncc(-c4cccc(C(F)(F)F)c4)n3n2)CO1` [Compound 25, [(2R,5S)-5-[[3-[3-(trifluoromethyl)phenyl]imidazo[1,2-b]pyridazin-6-yl]amino]tetrahydropyran-2-yl]methanol], the IC50 in assay [1] is greater than 10000 nM; in assay [2], 100 to 1000 nM; in assay [3], 1000 to 10000 nM.
For `CN1CCC2(CC1)CC(Nc1ccc3ncc(-c4cccc(C(F)(F)F)c4)n3n1)C2` [Compound 26, N-(7-methyl-7-azaspiro[3.5]nonan-2-yl)-3-(3-(trifluoromethyl)phenyl)imidazo[1,2-b]pyridazin-6-amine], the IC50 lay in the range of 1000 to 10000 nM in assay [1], 10 to 100 nM in assay [2] and 100 to 1000 nM in assay [3].
The like results for `CN1CCCC(Nc2ccc3ncc(-c4cccc(C(F)(F)F)c4)n3n2)CC1` (stereo not drawn) [Compound 27, N-(1-methylazacycloheptan-4-yl)-3-[3-(trifluoromethyl)phenyl]imidazo[1,2-b]pyridazin-6-amine] were, in that order, 100 to 1000 nM, 10 to 100 nM and 100 to 1000 nM.
For the compound `FC(F)(F)c1cccc(-c2cnc3ccc(NC4CC5(CCN(C6CC6)CC5)C4)nn23)c1` [Compound 30, N-(7-cyclopropyl-7-azaspiro [3.5]nonan-2-yl)-3-(3-(trifluoromethyl)phenyl)imidazo[1,2-b]pyridazin-6-amine], the IC50 is greater than 10000 nM in assay [1], 10 to 100 nM in assay [2] and 1000 to 10000 nM in assay [3].
Take `CC(C)(O)[C@H]1CC[C@H](Nc2ccc3nc(C(=O)O)c(-c4cccc(C(F)(F)F)c4)n3n2)CC1` [Compound 42, 6-(((1r,4r)-4-(2-hydroxypropan-2-yl)cyclohexyl)amino)-3-(3-(trifluoromethyl)phenyl)imidazo[1,2-b]pyridazine-2-carboxylic acid]: the values for the IC50 in assay [1], in assay [2] and in assay [3] were greater than 10000 nM, 100 to 1000 nM and 1000 to 10000 nM, respectively.
In the same order, the values of `CC(C)(O)[C@H]1CC[C@H](Nc2ccc3nc(C#N)c(-c4cccc(C(F)(F)F)c4)n3n2)CC1` [Compound 43, 6-(((1r,4r)-4-(2-hydroxypropan-2-yl)cyclohexyl)amino)-3-(3-(trifluoromethyl)phenyl)imidazo[1,2-b] pyridazine-2-carbonitrile] are greater than 10000 nM, 100 to 1000 nM and greater than 10000 nM.
The like results for `O[C@@H]1CCCC[C@@H](Nc2ccc3ncc(-c4cccc(C(F)(F)F)c4)n3n2)C1` [Compound 44, (1R,3R)-3-((3-(3-(trifluoromethyl)phenyl)imidazo[1,2-b]pyridazin-6-yl)amino)cycloheptanol] were, in that order, greater than 10000 nM, 100 to 1000 nM and greater than 10000 nM.
`O[C@@H]1CCC[C@@H](Nc2ccc3ncc(-c4cccc(C(F)(F)F)c4)n3n2)CC1` [Compound 45, (1R,4R)-4-((3-(3-(trifluoromethyl)phenyl)imidazo[1,2-b]pyridazin-6-yl)amino)cycloheptanol]: the IC50 is 1000 to 10000 nM in assay [1], 10 to 100 nM in assay [2] and 1000 to 10000 nM in assay [3].
Turning to `OC[C@H]1CC[C@H](Nc2ccc3ncc(-c4ccc(C(F)(F)F)s4)n3n2)CO1` [Compound 47, [(2R,5S)-5-[[3-[5-(trifluoromethyl)-2-thienyl]imidazo[1,2-b]pyridazin-6-yl]amino]tetrahydropyran-2-yl]methanol], the IC50 in assay [1] was greater than 10000 nM; in assay [2], 10 to 100 nM; in assay [3] it was 1000 to 10000 nM.
The like results for `CC(C)(O)[C@H]1CC[C@H](Nc2ccc3ncc(-c4cccc(-c5ccco5)c4)n3n2)CC1` [Compound 48, 2-((1r,4r)-4-((3-(3-(furan-2-yl)phenyl)imidazo[1,2-b]pyridazin-6-yl)amino)cyclohexyl)propan-2-ol] were, in that order, greater than 10000 nM, 10 to 100 nM and 100 to 1000 nM.
In the same order, the values of `CN1CCC(CNc2ccc3ncc(-c4cccc(N(C)C)c4)n3n2)CC1` [Compound 50, 3-(3-(dimethylamino)phenyl)-N-((1-methylpiperidin-4-yl)methyl)imidazo[1,2-b]pyridazin-6-amine] are greater than 10000 nM, 100 to 1000 nM and 1000 to 10000 nM.

Broadly, the IC50 is the concentration at which inhibition is half-maximal.
